Laboratory results as given in publication PMC6718736, “Validation of in vitro methods for human cytochrome P450 enzyme induction: Outcome of a multi-laboratory study” (Toxicology in Vitro, 2019).
Like-named read-outs stand apart in the source and are kept apart here.

What was measured:
[1] = cited from earlier work
[2] = test system: CYP3A4; assay: CYP3A4 enzyme induction assay in cryopreserved primary human hepatocytes (PHH); details: for Assigned classification CYP3A4: PHH
[3] = Solubility by nephelometry (EURL ECVAM); format: physicochemical
Source text: In addition to the visual inspection performed by the validation laboratories as described in the SOP, EURL ECVAM introduced nephelometry for systematic solubility determination of the 13 validation set chemicals. Nephelometry uses a laser beam and the principle of Tyndall effect light scatter to detect turbidity due to insolubility. The nephelometer method used formazin as reference item (1, 5, 10 and 20 nephelometric turbidity units (NTU)) to calculate the relative turbidity (RTU) of the validation set of chemicals. To the naked eye, 20 NTU is perceptible, while the nephelometer was sensitive to 5 NTU, with 1 NTU equivalent to background (solvent/medium blank).

[4] = test system: CYP2B6; assay: CYP2B6 enzyme induction assay in cryopreserved primary human hepatocytes (PHH); format: in vitro ADME; details: for Assigned classification CYP2B6: PHH
[5] = test system: CYP2B6; details: cited from earlier work
[6] = Solubility by visual inspection (DMSO stock solution and assay medium); format: physicochemical; details: assay medium
Experimental: The SOPs relied on visual inspection for solubility observation. […] The absence of precipitation in the medium was checked pre- and post-incubation (24 hours) by centrifugation of the sample and observation of any precipitation (pellet residue).

[7] = test system: CYP; details: CYP isoforms induced; ref Abadie et al. (2009), Richert et al. (2010), Preissner et al. (2010), Hoffmann et al. (2014); cited from earlier work
[8] = test system: CYP1A2; assay: CYP1A2 enzyme induction assay in cryopreserved primary human hepatocytes (PHH); format: in vitro ADME; details: for Prediction in vivo inducer: Cmax/F2 >0.5 criterion; for Assigned classification CYP1A2: PHH
[9] = test system: CYP3A4; details: cited from earlier work
[10] = human in vivo, CYP named without remark = induced, ref references in the cell, Washington University database, Hoffmann et al. (2014), Pelkonen et al. (2008), Hukkanen et al. (2012)

O=C1Nc2ccc(Cl)cc2[C@@](C#CC2CC2)(C(F)(F)F)O1 [Efavirenz]
20 µg/mL: HepaRG medium stability ([3]; ECVAM nephelometry, HepaRG medium, ^2 = solubility limit) | HepaRG medium stability ([6]; Lab 1, visual observation)
insoluble suspensions: nephelometry finding in assay medium ([3]; 40 μg/ml, the two media)
9.1 to 12.6 µM: Cmax ([1]; human in vivo plasma concentration, normal dose) | Cmax ([1]; human in vivo, normal dose (Table 10))
positive: Prediction in vivo inducer ([4]; CYP2B6, PHH, Cmax/F2 >0.5 criterion)
CYP3A4: CYP induction in vivo literature reference: CYP3A4 [9, 10]
non-inducers: Prediction in vivo inducer ([8]; CYP1A2, PHH, listed as efavirenz)
14.1 µM: F2 ([2]; CYP3A4, PHH)
CYP2B6: CYP induction in vivo literature reference: CYP2B6 [5, 10]
4.69 µM: F2 ([4]; CYP2B6, PHH)
No: Prediction in vivo inducer ([8]; CYP1A2, PHH) | Induction in vitro ([8]; CYP1A2, PHH, positive in one donor in each of the three laboratories)
Yes: Induction in vitro ([2]; CYP3A4, PHH) | Prediction in vivo inducer ([2]; CYP3A4, PHH) | Induction in vitro ([4]; CYP2B6, PHH) | Prediction in vivo inducer ([4]; CYP2B6, PHH) | Induction in vivo ([5]; CYP2B6, human in vivo reference classification) | Induction in vivo ([9]; CYP3A4, human in vivo reference classification (Table 12))
40^2 μg/mL: PHH medium stability ([3]; ECVAM nephelometry, ^2 = solubility limit)
0: Assigned classification CYP2B6 ([4]; Lab 2, batch 8 0 8) | Assigned classification CYP2B6 ([4]; Lab 3, batch 4 0 8) | Assigned classification CYP2B6 ([4]; Lab 3, batch 8 0 8) | Assigned classification CYP1A2 ([8]; Lab 1, batch 0 6 A) | Assigned classification CYP1A2 ([8]; Lab 1, batch 4 0 8) | Assigned classification CYP1A2 ([8]; Lab 1, batch 8 0 8) | Assigned classification CYP1A2 ([8]; Lab 2, batch 0 6 A) | Assigned classification CYP1A2 ([8]; Lab 2, batch 4 0 8) | Assigned classification CYP1A2 ([8]; Lab 2, batch 8 0 8) | Assigned classification CYP1A2 ([8]; Lab 3, batch 0 6 A) | Assigned classification CYP1A2 ([8]; Lab 3, batch 4 0 8) | Assigned classification CYP1A2 ([8]; Lab 3, batch 8 0 8)
40 µg/mL: PHH medium stability ([3]; ECVAM nephelometry, ^2 = solubility limit, listed as efavirenz) | HepaRG medium stability ([6]; Lab 2, visual observation) | HepaRG medium stability ([6]; Lab 3, visual observation) | PHH medium stability ([6]; Lab 4, visual observation) | PHH medium stability ([6]; Lab 5, visual observation) | PHH medium stability ([6]; Lab 6, visual observation)
CYP2B6, CYP3A4: CYP induction in vitro (human hepatocytes) [7]
1: Assigned classification CYP3A4 ([2]; Lab 1, batch 0 6 A) | Assigned classification CYP3A4 ([2]; Lab 1, batch 4 0 8) | Assigned classification CYP3A4 ([2]; Lab 1, batch 8 0 8) | Assigned classification CYP3A4 ([2]; Lab 2, batch 0 6 A) | Assigned classification CYP3A4 ([2]; Lab 2, batch 4 0 8) | Assigned classification CYP3A4 ([2]; Lab 2, batch 8 0 8) | Assigned classification CYP3A4 ([2]; Lab 3, batch 0 6 A) | Assigned classification CYP3A4 ([2]; Lab 3, batch 4 0 8) | Assigned classification CYP3A4 ([2]; Lab 3, batch 8 0 8) | Assigned classification CYP2B6 ([4]; Lab 1, batch 0 6 A) | Assigned classification CYP2B6 ([4]; Lab 1, batch 4 0 8) | Assigned classification CYP2B6 ([4]; Lab 1, batch 8 0 8) | Assigned classification CYP2B6 ([4]; Lab 2, batch 0 6 A) | Assigned classification CYP2B6 ([4]; Lab 2, batch 4 0 8) | Assigned classification CYP2B6 ([4]; Lab 3, batch 0 6 A)
